We go through 21 compounds from US20180110770A1, “FERROPTOSIS AND GLUTAMINOLYSIS INHIBITORS AND METHODS OF TREATMENT” (MEMORIAL SLOAN-KETTERING CANCER CENTER, priority 2015, published 2018).

Peptide text beside a SMILES is read from it. * marks the point of attachment. Cbz = O=C(OCc1ccccc1)*; CH2F = FC*

Assay [1] relates to MEFs. Kind of assay: Serum-dependent necrosis (serum-induced cell death) upon amino acid or cystine starvation. In kind it is cell-based, mouse. The conditions noted are these: 12 hrs, NAC 0.2 mM, Trolox 0.2 mM; for inhibition of serum-dependent necrosis (cell viability / cell death): total amino acid starvation in the presence of FBS, GPNA 5 mM, 968 20 μM, AOA 0.5 mM, BPTES 10 μM, DFO 80 μM, CPX 10 μM, BIP 100 μM, cysteine/cystine 0.2 mM, U0126 and PD0325901 10 μM; for inhibition of serum-dependent cell death triggered by cystine starvation: cystine starvation in the presence of serum. The method, then: (§1) To induce cell death, 80%-confluent cells were washed with PBS twice, and then cultured in amino acid-free medium, with specific factors added as indicated in individual experiments. Cell death was analyzed by propidium iodide (PI) staining coupled with microscopy or flow cytometry. Alternatively, cell viability was determined using the CellTiter-Glo luminescent Cell Viability Assay (Promega). In assays using WT MEFs, viability was calculated by normalizing ATP levels to cells treated with amino acid-starvation in the presence of 10% (v/v) diFBS, while in assays using bax/bak-DKO MEFs, ATP levels were normalized to cells treated with amino acid and FBS double starvation.

Assay [2] deals with MEFs. Nature of the assay: Erastin-induced ferroptosis. The class given is cell-based, mouse. The conditions noted are these: erastin 1 μM, 12 hrs, DFO 80 μM, CPX 10 μM, 968 20 μM, AOA 0.5 mM, U0126 and PD0325901 10 μM.
In a further assay the test system is TNF-α induced apoptosis. Kind of assay: TNF-α induced apoptosis. In kind it is cell-based. Conditions: TNF-α 50 ng/ml + SMAC mimetic 0.5 μM; AOA 0.5 mM.
Assay [3] can be described thus: 2,2-Diphenyl-1-picrylhydrazyl assay for antioxidant activity. Conditions: compound 50 μM, DPPH 50 μM in methanol, 1 hr, room temperature, absorbance at 517 nm. As for the experimental part: The experiment was performed as described previously (Blois, 1958; Dixon et al., 2012). 2,2-Diphenyl-1-picrylhydrazyl (DPPH) (Sigma Cat#D9132) was dissolved in methanol to a final concentration of 50 μM. The tested compounds were added to 1 ml of DPPH solution with a final concentration of 50 μM. Samples were mixed well and incubated at room temperature for 1 hr. The absorbance at 517 nm (indicating the concentration of non-reduced DPPH) was measured using methanol as control.

Assay [4] relates to hearts isolated from wild-type mice. Kind of assay: Ischemia-reperfusion (I/R) analysis using isolated hearts (ex vivo heart model). In kind it is in vivo. Conditions: ex vivo mouse heart, DFO 80 μM; for left ventricular developed pressure (LVDP) recovery at the end of reperfusion / myocardial infarct size (TTC staining): 30 min global ischemia, 60 min reperfusion; for left ventricular developed pressure (LVDP) recovery at the end of reperfusion: 968 25 μM in perfusate, vehicle 43.20%±1.66%; for myocardial infarct size (TTC staining): vehicle 30.82%±0.57%. As for the experimental part: Male C57BL/6J mice weighing 25-30 g at age 12-14 weeks were used in all experiments and maintained in a temperature-controlled room with alternating 12:12-h light-dark cycles. Experiments were performed using an isovolumic isolated heart preparation as published and modified for the use in mice hearts ([…] et al., 2009; Hwang et al., 2004). Hearts from 12-14 weeks aged wild-type mice were isolated, and retrograde perfused at 37° C. in a non-recirculating mode through the aorta at a rate of 2.5 ml/min. Hearts were perfused with modified Krebs-Henseleit (KH) buffer (118 mM NaCl, 4.7 mM KCl, 2.5 mM CaCl2, 1.2 mM MgCl2, 25 mM NaHCO3, 5 mM glucose, 0.4 mM palmitate, 0.2 mM glutamine, 10 μg/ml human recombinant transferrin, 0.4 mM BSA, and 70 mU/1 insulin). Left ventricular developed pressure (LVDP) was measured using a latex balloon in the left ventricle. LVDP and coronary perfusion pressure were monitored continuously on a four-channel Gould recorder. Hearts were perfused either with KH buffer containing vehicle (DMSO) or the Compounds throughout the FR protocol. After an equilibration period of 30 min, global ischemia was performed for 30 min followed by 60 minutes of reperfusion. Cardiac injury due to I/R stress was assessed by measuring LDH release in the perfusates that were collected during 60 min of reperfusion. […] After 60 min of reperfusion, the heart is perfused with Evans blue in-situ and then removed. Hearts were sliced into cross-sections at approximately 1-mm intervals. The sections were embedded in the TTC solution at 37° C. for 10 min, and area of infarct as a percent of the whole heart was quantified as described. Functional recovery of LVDP was expressed by comparing to the initial LVDP before ischemia. All animal experiments were approved by the Institutional Animal Care and Use Committees of New York University School of Medicine and conformed to the guidelines outlined in the National Institutes of Health Guide for Care and Use of Laboratory Animals (NIH Pub. No. 85-23, 1996).

The next assay relates to MEK1/2. The conditions noted are these: MEFs, PD0325901 10 μM, U0126 10 μM, Western blotting.
Assay [5] concerns MEFs. Nature of the assay: Death-inducing activity of serum small molecules under amino acid starvation with diFBS. In kind it is cell-based, mouse. Conditions: 12 hrs, α-KG 4 mM also in the presence of AOA 0.5 mM, glucose with diFBS or transferrin. As for the experimental part:
as §1

A further assay concerns bax/bak-DKO MEFs. Kind of assay: Death-inducing activity of transferrin and L-Gln under amino acid starvation. The conditions noted are these: 12 hrs. In kind it is cell-based, mouse. The method, then:
as §1

For a further assay, the system named is caspase-3 activation. Kind of assay: Caspase-3 activation induced by UV light (Western blot). The class given is cell-based.

For the compound `NOCC(=O)O` [AOA, amino-oxyacetate], the “inhibition of serum-dependent necrosis (cell viability / cell death)” value (shortened to “inhibition … (cell viability / cell death)”) in the assay on MEFs [1] was “could inhibit”. Also, the “inhibition of erastin-induced ferroptosis (PI staining, flow cytometry)” value (shortened to “inhibition … (PI staining, flow cytometry)”) with MEFs [2] was “can also inhibit”. Also, the “inhibition of TNF-α induced apoptosis” value with TNF-α induced apoptosis is “cannot inhibit”.

`O=C(Cc1ccccc1)Nc1nnc(CCSCCc2nnc(NC(=O)Cc3ccccc3)s2)s1` [BETPS, Bis-2-(5-phenylacetamido-1,3 ,4-thiadiazol-2-yl)ethyl sulfide]: the “inhibition … (cell viability / cell death)” value with MEFs [1] was “failed to block”.

Turning to `c1ccc(-c2ccccn2)nc1` [BIP, 2,2-bipyridyl], the “inhibition … (cell viability / cell death)” value in the assay on MEFs [1] is “blocked”.

With `Cc1cc(C2CCCCC2)n(O)c(=O)c1` [CPX, ciclopirox olamine], in the assay on MEFs [1], the “inhibition … (cell viability / cell death)” value is “blocked”. Further, the “inhibition … (PI staining, flow cytometry)” value in the assay with MEFs [2] was “inhibited”.

Regarding `CN(C)c1ccc(C2Nc3ccc4ccccc4c3C3=C2C(=O)CC(C)(C)C3)cc1Br` (stereo not drawn) [Compound 968], the “inhibition … (cell viability / cell death)” value in the assay with MEFs [1] is given as “completely inhibited”. Also, the “inhibition … (PI staining, flow cytometry)” value in the assay with MEFs [2] is reported as “can also inhibit”. Moreover, the “antioxidant activity (reduction of DPPH)” value in assay [3] is recorded as “showed no anti-oxidant function”. For the same compound, the “left ventricular developed pressure (LVDP) recovery at the end of reperfusion” value in assay [4] is listed as 75.25%±5.75%. Further, the “myocardial infarct size (TTC staining)” value in assay [4] (968 25 μM) is given as 17.36%±0.47%. Further, the “release of lactate dehydrogenase (LDH) during reperfusion” value in [4] (perfusates collected during 60 min reperfusion, 968 25 μM) is reported as “significantly inhibited”.

Regarding `N#CC(=C(/N)Sc1ccccc1N)/C(C#N)=C(\N)Sc1ccccc1N` [Compound U0126], the “inhibition … (cell viability / cell death)” value in the assay on MEFs [1] is “able to block”. In addition, the “inhibition … (PI staining, flow cytometry)” value in the assay with MEFs [2] is reported as “able to block”. Further, the “antioxidant activity (reduction of DPPH)” value in assay [3] is given as “anti-oxidative property”. Besides, the “inhibition of MEK1/2 kinase activity” value with MEK1/2 was “confirmed the inhibition of MEK1/2 kinase activity”.

`CC(=O)N(O)CCCCCNC(=O)CCC(=O)N(O)CCCCCNC(=O)CCC(=O)N(O)CCCCCN` [DFO, Deferoxamine]: the “left ventricular developed pressure (LVDP) recovery at the end of reperfusion” value in assay [4] is recorded as 64.75%±4.09%. Also, the “myocardial infarct size (TTC staining)” value in assay [4] (968 25 μM) is reported as 22.60%±0.97%.

Regarding `CCOC(=O)c1ccc(NC2CCCCC2)c(N)c1` [Fer-1], in the assay with MEFs [1], the “inhibition of serum-dependent cell death triggered by cystine starvation” value (“inhibition … by cystine starvation” below) is on record as “can block” and the “inhibition … (cell viability / cell death)” value is listed as “can block”.

As for `N[C@@H](CCC(=O)Nc1ccc([N+](=O)[O-])cc1)C(=O)O` [GPNA, L-g-glutamyl-p-nitroanilide], the “inhibition … (cell viability / cell death)” value in the assay with MEFs [1] was “markedly blocked”.

`N[C@@H](CCC(=O)N[C@@H](CS)C(=O)NCC(=O)O)C(=O)O` [GSH, glutathione]: in the assay on MEFs [1], the “inhibition … by cystine starvation” value is on record as “effectively blocked” and the “inhibition … (cell viability / cell death)” value is “effectively blocked”.

`NC(=O)CC[C@H](N)C(=O)O` [L-Gln, L-glutamine]: the “induction of cell death in the presence of diFBS” value (shortened to “induction … of diFBS”) in the assay on MEFs [5] is “induced potent cell death”. In the assay on bax/bak-DKO MEFs (L-Gln 0.1 mM alone), the “induction of cell death by L-Gln alone” value is on record as “induced modest but measurable cell death”.

With `CC(=O)N[C@@H](CS)C(=O)O` [NAC, N-acetylcysteine], in the assay on MEFs [1], the “inhibition … by cystine starvation” value is reported as “effectively blocked” and the “inhibition … (cell viability / cell death)” value is “effectively blocked”.

With `O=C(NOC[C@H](O)CO)c1ccc(F)c(F)c1Nc1ccc(I)cc1F` [PD0325901], the “antioxidant activity (reduction of DPPH)” value in assay [3] was “showed no anti-oxidant function”.

As to `Cc1c(C)c2c(c(C)c1O)CCC(C)(C(=O)O)O2` (stereo not drawn) [Trolox, 6-hydroxy-2,5,7,8-tetramethylchroman-2-carboxylic acid], in the assay on MEFs [1], the “inhibition … by cystine starvation” value is “effectively blocked” and the “inhibition … (cell viability / cell death)” value was “effectively blocked”.

Take `N[C@@H](CS)C(=O)O` [cysteine]: the “inhibition … (cell viability / cell death)” value in the assay on MEFs [1] is “rescued cells from necrosis”.

For `N[C@@H](CSSC[C@H](N)C(=O)O)C(=O)O` [cystine], in the assay on MEFs [1], the “inhibition … (cell viability / cell death)” value was “rescued cells from necrosis”.

As for `COC(=O)C[C@H](NC(=O)[C@H](C)NC(=O)[C@@H](NC(=O)OCc1ccccc1)C(C)C)C(=O)CF` [zVAD-FMK] (Cbz-Val-Ala-Asp(OMe)-CH2F), in the assay with MEFs [1], the “inhibition … (cell viability / cell death)” value is listed as “failed to block”. Besides, in the assay on caspase-3 activation, the “block of caspase-3 activation induced by UV light” value is listed as “can block”.

In the case of `COC(=O)CCC(=O)C(=O)OC` [α-KG, Dimethyl-α-Ketoglutarate], the “induction … of diFBS” value with MEFs [5] is on record as “can induce potent cell death”.

Turning to L-alanine-L-glutamine [A-Q], in the assay on MEFs [5], the “induction … of diFBS” value was “able to induce cell death”.

Take “recombinant human holo-transferrin: recombinant human holo-transferrin expressed in rice”: in the assay with bax/bak-DKO MEFs (with smFBS), the “induction of cell death in the presence of smFBS” value was “could induce cell death in a dose-dependent manner”.

As to “transferrin: iron carrier protein in serum”, in the assay with bax/bak-DKO MEFs (with L-Gln 0.1 mM), the “cell death on addition of transferrin to L-Gln” value was “further enhanced cell death”.
